The assay has as its target T1, ligand binding domain of human ROR gamma (Homo sapiens, UniProt P51449).
T1 construct: NM_001001523; expressed in transfected cells; host or cells: HEK293T
T1 sequence (P51449 247-497 isoform P51449-2): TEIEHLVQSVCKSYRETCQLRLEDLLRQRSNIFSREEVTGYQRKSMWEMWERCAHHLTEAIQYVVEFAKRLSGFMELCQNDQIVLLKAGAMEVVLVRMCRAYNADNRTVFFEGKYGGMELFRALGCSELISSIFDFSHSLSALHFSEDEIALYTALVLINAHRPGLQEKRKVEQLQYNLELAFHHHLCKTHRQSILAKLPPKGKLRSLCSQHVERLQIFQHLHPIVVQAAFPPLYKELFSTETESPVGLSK
In words: ROR gamma reporter gene assay (GAL4-RORγ LBD luciferase, Dual-Glo). Format: cell-based. The note with it: HEK293T cells transfected with pM-ROR gamma, 8 concentrations 3.5 nM to 10.5 μM, 24 h incubation; read-out: result (pIC50, inhibition of RORγ transcriptional activity) (converted). In short, it runs like this: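 Inhibition of RORγ-driven transcription was measured in HEK293T cells expressing a GAL4 fusion of the human RORγ LBD (aa 247-497), with renilla luciferase as internal control. Cells in 10% charcoal-stripped serum received compound (3.5 nM–10.5 μM) for 24 h.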
Background: In a reporter assay the amount or activity of a reporter protein is the signal.

With `COc1cccc(Cl)c1C(=O)CN(Cc1cc(F)cc(F)c1)C(=O)c1cnn([C@H]2CC[C@H](C(=O)O)CC2)c1C(F)(F)F` [Example 54, trans-4-(4-((2-(2-chloro-6-methoxyphenyl)-2-oxoethyl)(3,5-difluorobenzyl)carbamoyl)-5-(trifluoromethyl)-1H-pyrazol-1-yl)cyclohexanecarboxylic acid], the IC50 is 70800 pM.
Take `O=C(CN(Cc1cc(F)cc(F)c1)C(=O)c1cnn([C@H]2CC[C@H](C(=O)O)CC2)c1C(F)(F)F)c1c(Cl)cc(F)cc1Cl` [Example 55, trans-4-(4-((2-(2,6-dichloro-4-fluorophenyl)-2-oxoethyl)(3,5-difluorobenzyl)carbamoyl)-5-(trifluoromethyl)-1H-pyrazol-1-yl)cyclohexanecarboxylic acid]: the IC50 is 8910 pM.
As for `O=C(CN(Cc1cc(F)cc(F)c1)C(=O)c1cnn([C@H]2CC[C@H](C(=O)O)CC2)c1C(F)(F)F)c1c(Cl)cc(Cl)cc1Cl` [Example 56, trans-4-(4-((3,5-difluorobenzyl)(2-oxo-2-(2,4,6-trichlorophenyl)ethyl)carbamoyl)-5-(trifluoromethyl)-1H-pyrazol-1-yl)cyclohexanecarboxylic acid], the IC50 is 15500 pM.
As to `O=C(CN(Cc1cc(F)cc(F)c1)C(=O)c1cnn([C@H]2CC[C@H](C(=O)O)CC2)c1C(F)(F)F)c1c(Cl)cc(C(F)(F)F)cc1Cl` [Example 57, trans-4-(4-((2-(2,6-dichloro-4-(trifluoromethyl)phenyl)-2-oxoethyl)(3,5-difluorobenzyl)carbamoyl)-5-(trifluoromethyl)-1H-pyrazol-1-yl)cyclohexanecarboxylic acid], the IC50 is 38000 pM.
With `N#Cc1cc(Cl)c(C(=O)CN(Cc2cc(F)cc(F)c2)C(=O)c2cnn([C@H]3CC[C@H](C(=O)O)CC3)c2C(F)(F)F)c(Cl)c1` [Example 58, trans-4-(4-((2-(2,6-dichloro-4-cyanophenyl)-2-oxoethyl)(3,5-difluorobenzyl)carbamoyl)-5-(trifluorornethyl)-1H-pyrazol-1-yl)cyclohexanecarboxylic acid] the figure was 135000 pM; with `O=C(CN(Cc1cc(F)cc(F)c1)C(=O)c1cnn([C@H]2CC[C@H](C(=O)O)CC2)c1C(F)(F)F)c1cc(Cl)cc(Cl)c1` [Example 59, trans-4-(4-((2-(3,5-dichlorophenyl)-2-oxoethyl)(3,5-difluorobenzyl)carbamoyl)-5-(trifluoromethyl)-1H-pyrazol-1-yl)cyclohexanecarboxylic acid], 5.89e+06 pM; with `O=C(CN(Cc1cc(F)cc(F)c1)C(=O)c1cnn([C@H]2CC[C@H](C(=O)O)CC2)c1C(F)(F)F)c1cc(F)cc(F)c1` [Example 60, trans-4-(4-((3,5-difluorobenzyl)(2-(3,5-difluorophenyl)-2-oxoethyl)carbamoyl)-5-(trifluoromethyl)-1H-pyrazol-1-yl)cyclohexanecarboxylic acid], above 1e+07 pM.
Turning to `O=C(CN(Cc1cc(F)cc(F)c1)C(=O)c1cnn([C@H]2CC[C@H](C(=O)O)CC2)c1C(F)(F)F)c1ccc(F)cc1Cl` [Example 61, trans-4-(4-((2-(2-chloro-4-fluorophenyl)-2-oxoethyl)(3,5-difluorobenzyl)carbamoyl)-5-(trifluoromethyl)-1H-pyrazol-1-yl)cyclohexanecarboxylic acid], the IC50 was 200000 pM.
For `O=C(CN(Cc1cc(F)cc(F)c1)C(=O)c1cnn([C@H]2CC[C@H](C(=O)O)CC2)c1C(F)(F)F)c1ccncc1` [Example 62, trans-4-(4-((3,5-difluorobenzyl)(2-oxo-2-(pyridin-4-yl)ethyl)carbamoyl)-5-(trifluoromethyl)-1H-pyrazol-1-yl)cyclohexanecarboxylic acid], the IC50 is above 1e+07 pM.
For the molecule `Cc1coc(C)c1C(=O)CN(Cc1cc(F)cc(F)c1)C(=O)c1cnn([C@H]2CC[C@H](C(=O)O)CC2)c1C(F)(F)F` [Example 63, trans-4-(4-((3,5-difluorobenzyl)(2-(2,4-dimethylfuran-3-yl)-2-oxoethyl)carbamoyl)-5-(trifluoromethyl)-1H-pyrazol-1-yl)cyclohexanecarboxylic acid], the IC50 is 3.39e+06 pM.
Under `Cc1noc(C)c1C(=O)CN(Cc1cc(F)cc(F)c1)C(=O)c1cnn([C@H]2CC[C@H](C(=O)O)CC2)c1C(F)(F)F` [Example 64, trans-4-(4-((3,5-difluorobenzyl)(2-(3,5-dimethylisoxazol-4-yl)-2-oxoethyl)carbamoyl)-5-(trifluoromethyl)-1H-pyrazol-1-yl)cyclohexanecarboxylic acid] stands above 1e+07 pM; under `O=C(CN(Cc1cc(F)cc(F)c1)C(=O)c1cnn([C@H]2CC[C@H](C(=O)O)CC2)c1C(F)(F)F)C1CCCCC1` [Example 65, trans-4-(4-((2-cyclohexyl-2-oxoethyl)(3,5-difluorobenzyl)carbamoyl)-5-(trifluoromethyl)-1H-pyrazol-1-yl)cyclohexanecarboxylic acid], above 1e+07 pM; under `O=C(CN(Cc1cc(F)cc(F)c1)C(=O)c1cnn([C@H]2CC[C@H](C(=O)O)CC2)c1C(F)(F)F)c1c(Cl)cc(C2CC2)cc1Cl` [Example 66, trans-4-(4-((2-(2,6-dichloro-4-cyclopropylphenyl)-oxoethyl)(3,5-difluorobenzyl)carbamoyl)-5-(trifluoromethyl)-1H-pyrazol-1-yl)cyclohexanecarboxylic acid], 83200 pM.
`COc1cc(Cl)c(C(=O)CN(Cc2cc(F)cc(F)c2)C(=O)c2cnn([C@H]3CC[C@H](C(=O)O)CC3)c2C(F)(F)F)c(Cl)c1` [Example 67, trans-4-(4-((2-(2,6-dichloro-4-methoxyphenyl)-2-oxoethyl)(3,5-dffluorobenzyl)carbamoyl)-5-(trifluoromethyl)-1H-pyrazol-1-yl)cyclohexanecarboxylic acid]: the IC50 is 56200 pM.
Under `C#Cc1cccc(Cl)c1C(=O)CN(Cc1cc(F)cc(F)c1)C(=O)c1cnn([C@H]2CC[C@H](C(=O)O)CC2)c1C(F)(F)F` [Example 68, trans-4-(4-((2-(2-chloro-6-ethynylphenyl)-2-oxoethyl)(3,5-difluorobenzyl)carbamoyl)-5-(trifluoromethyl)-1H-pyrazol-1-yl)cyclohexanecarboxylic acid] stands 1.32e+06 pM; under `O=C(CN(Cc1cc(F)cc(F)c1)C(=O)c1cnn([C@H]2CC[C@H](C(=O)O)CC2)c1C(F)(F)F)c1ccc(O)cc1` [Example 69, trans-4-(4-((3,5-difluorobenzyl)(2-(4-hydroxyphenyl)-2-oxoethyl)carbamoyl)-5-(trifluoromethyl)-1H-pyrazol-1-yl)cyclohexanecarboxylic acid], above 1e+07 pM; under `O=C(CN(Cc1cc(F)cc(F)c1)C(=O)c1cnn([C@H]2CC[C@H](C(=O)O)CC2)c1C(F)(F)F)c1c(Cl)cc(O)cc1Cl` [Example 70, trans-4-(4-((2-(2,6-dichloro-4-hydroxyphenyl)-2-oxoethyl)(3,5-difluorobenzyl)carbarnoyl)-5-(trifluoromethyl)-1H-pyrazol-1-yl)cyclohexanecarboxylic acid], above 1e+07 pM.
With `O=C(CN(CC1CCOCC1)C(=O)c1cnn([C@H]2CC[C@H](C(=O)O)CC2)c1C(F)(F)F)c1c(Cl)cncc1Cl` [Example 71, trans-4-(4-((2-(3,5-dichloropyridin-4-yl)-2-oxoethyl)((tetrahydro-2H-pyran-4-yl)methyl)carbamoyl)-5-(trifluoromethyl)-1H-pyrazol-1-yl)cyclohexanecarboxylic acid] the figure was 2.09e+06 pM; with `O=C(CN(CC1CC1)C(=O)c1cnn([C@H]2CC[C@H](C(=O)O)CC2)c1C(F)(F)F)c1c(Cl)cncc1Cl` [Example 72, trans-4-(4-((cyclopropylmethyl)(2-(3,5-dichloropyridin-4-yl)-2-oxoethyl)carbamoyl)-5-(trifluoromethyl)-1H-pyrazol-1-yl)cyclohexanecarboxylic acid], 1.32e+06 pM; with `CC(C)(F)CN(CC(=O)c1c(Cl)cncc1Cl)C(=O)c1cnn([C@H]2CC[C@H](C(=O)O)CC2)c1C(F)(F)F` [Example 73, trans-4-(4-((2-(3,5-dichloropyridin-4-yl)-2-oxoethyl)(2-fluoro-2-methylpropyl)carbamoyl)-5-(trifluoromethyl)-1H-pyrazol-1-yl)cyclohexanecarboxylic acid], 646000 pM.
With `COC(C)(C)CN(CC(=O)c1c(Cl)cncc1Cl)C(=O)c1cnn([C@H]2CC[C@H](C(=O)O)CC2)c1C(F)(F)F` [Example 74, trans-4-(4-((2-(3,5-dichloropyridin-4-yl)-2-oxoethyl)(2-methoxy-2-methylpropyl)carbamoyl)-5-(trifluoromethyl)-1H-pyrazol-1-yl)cyclohexanecarboxylic acid], the IC50 was 263000 pM.
As to `O=C(CN(CC(F)(F)F)C(=O)c1cnn([C@H]2CC[C@H](C(=O)O)CC2)c1C(F)(F)F)c1c(Cl)cncc1Cl` [Example 75, trans-4-(4-((2-(3,5-dichloropyridin-4-yl)-2-oxoethyl)(2,2,2-trifluoroethyl)carbamoyl)-5-(trifluoromethyl)-1H-pyrazol-1-yl)cyclohexanecarboxylic acid], the IC50 was 316000 pM.
Turning to `O=C(CN(Cc1ccncc1)C(=O)c1cnn([C@H]2CC[C@H](C(=O)O)CC2)c1C(F)(F)F)c1c(Cl)cncc1Cl` [Example 76, trans-4-(4-((2-(3,5-dichloropyridin-4-yl)-2-oxoethyl)(pyridin-4-ylmethyl)carbamoyl)-5-(trifluoromethyl)-1H-pyrazol-1-yl)cyclohexanecarboxylic acid], the IC50 was 1.7e+06 pM.

These data come from US9365522B2, “Pyrazole amide derivative” (AMGEN INC., priority 2015, dated 2016).
